Data taken from paper PMC12281424, “A Rac-specific competitive inhibitor of guanine nucleotide binding reduces metastasis in triple-negative breast cancer” (Cell Reports Medicine, 2025).
“And” between values parts separate entries of the source, which are not always exact repeats. Equal entries are not always repeated.

How the values were obtained:
Pim-1(h) = Pim-1(h) (Homo sapiens, UniProt P11309); assay: Kinase Profiler; assay type: biochemical
Procedure: (§3) Blood cell counts, kinase profiler, safety screen, bacterial cytotoxicity, Ames, micronucleus assays were performed by the company Eurofins (France). The kinase profiler was performed by the company Eurofins (Discovery, Panlab and Cerep).

Melanocortin MC1 = Melanocortin MC1 (Homo sapiens, UniProt Q01726); assay: Safety screen; assay type: binding
Procedure: (§4) Blood cell counts, kinase profiler, safety screen, bacterial cytotoxicity, Ames, micronucleus assays were performed by the company Eurofins (France).

MINK(h) = MINK(h) (Homo sapiens, UniProt Q8N4C8); assay: Kinase Profiler; assay type: biochemical
Procedure: (§5) The kinase profiler was performed by the company Eurofins (Discovery, Panlab and Cerep).

DDR1(h) = DDR1(h) (Homo sapiens, UniProt Q08345); assay: Kinase Profiler; assay type: biochemical
Procedure: as §3

TAK1(h) = TAK1(h) (Homo sapiens, UniProt O43318); assay: Kinase Profiler; assay type: biochemical
Procedure: as §3

PRKG2(h) = PRKG2(h) (Homo sapiens, UniProt Q13237); assay: Kinase Profiler; assay type: biochemical
Procedure: as §3

Fgr(h) = Fgr(h) (Homo sapiens, UniProt P09769); assay: Kinase Profiler; assay type: biochemical
Procedure: as §5

Histamine H2 = Histamine H2 (Homo sapiens, UniProt P25021); assay: Safety screen; assay type: binding
Procedure: as §3

ATM(h) = ATM(h) (Homo sapiens, UniProt Q13315); assay: Kinase Profiler; assay type: biochemical
Procedure: as §5

ErbB2(h) = ErbB2(h) (Homo sapiens, UniProt P04626); assay: Kinase Profiler; assay type: biochemical
Procedure: as §5

TYK2(h) = TYK2(h) (Homo sapiens, UniProt P29597); assay: Kinase Profiler; assay type: biochemical
Procedure: as §3

[1] = biological target: PI3K (p110a(H1047R)/p85a)(m) (Mus musculus, UniProt P42337, H1047R); assay: Kinase Profiler; assay type: biochemical
Procedure: as §3

TLK1(h) = TLK1(h) (Homo sapiens, UniProt Q9UKI8); assay: Kinase Profiler; assay type: biochemical
Procedure: as §5

SIK(h) = SIK(h) (Homo sapiens, UniProt P57059); assay: Kinase Profiler; assay type: biochemical
Procedure: as §5

Sodium Channel, Site 2 = assay: Safety screen; assay type: binding, rat
Procedure: as §4

NEK11(h) = NEK11(h) (Homo sapiens, UniProt Q8NG66); assay: Kinase Profiler; assay type: biochemical
Procedure: as §5

EGFR(L861Q)(h) = EGFR(L861Q)(h) (Homo sapiens, UniProt P00533, L861Q); assay: Kinase Profiler; assay type: biochemical
Procedure: as §5

PAK1(h) = PAK1(h) (Homo sapiens, UniProt Q13153); assay: Kinase Profiler; assay type: biochemical
Procedure: as §3

Potassium Channel hERG = Potassium Channel hERG (Homo sapiens, UniProt Q12809); assay: Safety screen; assay type: binding
Procedure: as §3

SGK3(h) = SGK3(h) (Homo sapiens, UniProt Q96BR1); assay: Kinase Profiler; assay type: biochemical
Procedure: as §5

TA1535 = assay: Bacterial cytotoxicity; assay type: cell-based
Excerpt: (§1) Data S2. Bacterial cytotoxicity of A41.
(§2) Test Concentration %Effect Cytotoxicity (% of control) […]

TA100 = assay: Bacterial cytotoxicity; assay type: cell-based
Excerpt: as §1, §2

DAPK1(h) = DAPK1(h) (Homo sapiens, UniProt P53355); assay: Kinase Profiler; assay type: biochemical
Procedure: as §5

PTK5(h) = PTK5(h) (Homo sapiens, UniProt P42685); assay: Kinase Profiler; assay type: biochemical
Procedure: as §5

PKBα(h) = PKBα(h) (Homo sapiens, UniProt P31749); assay: Kinase Profiler; assay type: biochemical
Procedure: as §5

CDK3/cyclinE(h) = CDK3/cyclinE(h) (Homo sapiens, UniProt Q00526); assay: Kinase Profiler; assay type: biochemical
Procedure: as §3

[2] = biological target: Serotonin (5-Hydroxytryptamine) 5-HT3 (Homo sapiens, UniProt P46098); assay: Safety screen; assay type: binding
Procedure: as §4

Lck(h) = Lck(h) (Homo sapiens, UniProt P06239); assay: Kinase Profiler; assay type: biochemical
Procedure: as §5

RIPK1(h) = RIPK1(h) (Homo sapiens, UniProt Q13546); assay: Kinase Profiler; assay type: biochemical
Procedure: as §5

IGF-1R(h) = IGF-1R(h) (Homo sapiens, UniProt P08069); assay: Kinase Profiler; assay type: biochemical
Procedure: as §3

[3] = biological target: Serotonin (5-Hydroxytryptamine) 5-HT2C (Homo sapiens, UniProt P28335); assay: Safety screen; assay type: binding
Procedure: as §4

PAK6(h) = PAK6(h) (Homo sapiens, UniProt Q9NQU5); assay: Kinase Profiler; assay type: biochemical
Procedure: as §5

ICK(h) = ICK(h) (Homo sapiens, UniProt Q9UPZ9); assay: Kinase Profiler; assay type: biochemical
Procedure: as §5

ALK4(h) = ALK4(h) (Homo sapiens, UniProt P36896); assay: Kinase Profiler; assay type: biochemical
Procedure: as §5

CSK(h) = CSK(h) (Homo sapiens, UniProt P41240); assay: Kinase Profiler; assay type: biochemical
CSK(h), sequence (P41240 whole entry): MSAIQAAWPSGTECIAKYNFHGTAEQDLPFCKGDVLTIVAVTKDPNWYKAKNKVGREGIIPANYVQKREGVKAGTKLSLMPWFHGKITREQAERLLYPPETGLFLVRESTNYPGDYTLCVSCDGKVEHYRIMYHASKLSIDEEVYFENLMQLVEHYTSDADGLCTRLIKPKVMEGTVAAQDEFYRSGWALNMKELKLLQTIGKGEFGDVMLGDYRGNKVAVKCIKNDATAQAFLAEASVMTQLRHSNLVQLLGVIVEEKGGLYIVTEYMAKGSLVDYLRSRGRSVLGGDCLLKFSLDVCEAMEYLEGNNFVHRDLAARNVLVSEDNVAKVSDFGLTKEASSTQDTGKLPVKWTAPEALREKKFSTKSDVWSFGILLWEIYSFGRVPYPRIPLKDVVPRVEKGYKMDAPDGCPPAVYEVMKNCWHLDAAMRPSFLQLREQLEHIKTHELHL
Procedure: as §5

Serotonin (5-Hydroxytryptamine) 5-HT2C, sequence (P28335 33-458): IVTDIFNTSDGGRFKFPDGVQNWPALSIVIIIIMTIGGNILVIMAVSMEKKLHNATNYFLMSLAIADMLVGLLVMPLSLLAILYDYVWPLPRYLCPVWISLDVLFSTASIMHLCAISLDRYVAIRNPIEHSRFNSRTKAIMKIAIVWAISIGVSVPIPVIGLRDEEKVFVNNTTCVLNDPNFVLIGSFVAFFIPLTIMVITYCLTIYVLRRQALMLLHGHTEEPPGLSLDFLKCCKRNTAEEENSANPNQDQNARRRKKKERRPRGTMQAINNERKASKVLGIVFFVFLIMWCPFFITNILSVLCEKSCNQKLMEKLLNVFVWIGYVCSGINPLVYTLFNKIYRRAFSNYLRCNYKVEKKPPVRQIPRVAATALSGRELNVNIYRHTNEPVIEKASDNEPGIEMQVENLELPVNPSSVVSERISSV
DAPK1(h), sequence (P53355 whole entry): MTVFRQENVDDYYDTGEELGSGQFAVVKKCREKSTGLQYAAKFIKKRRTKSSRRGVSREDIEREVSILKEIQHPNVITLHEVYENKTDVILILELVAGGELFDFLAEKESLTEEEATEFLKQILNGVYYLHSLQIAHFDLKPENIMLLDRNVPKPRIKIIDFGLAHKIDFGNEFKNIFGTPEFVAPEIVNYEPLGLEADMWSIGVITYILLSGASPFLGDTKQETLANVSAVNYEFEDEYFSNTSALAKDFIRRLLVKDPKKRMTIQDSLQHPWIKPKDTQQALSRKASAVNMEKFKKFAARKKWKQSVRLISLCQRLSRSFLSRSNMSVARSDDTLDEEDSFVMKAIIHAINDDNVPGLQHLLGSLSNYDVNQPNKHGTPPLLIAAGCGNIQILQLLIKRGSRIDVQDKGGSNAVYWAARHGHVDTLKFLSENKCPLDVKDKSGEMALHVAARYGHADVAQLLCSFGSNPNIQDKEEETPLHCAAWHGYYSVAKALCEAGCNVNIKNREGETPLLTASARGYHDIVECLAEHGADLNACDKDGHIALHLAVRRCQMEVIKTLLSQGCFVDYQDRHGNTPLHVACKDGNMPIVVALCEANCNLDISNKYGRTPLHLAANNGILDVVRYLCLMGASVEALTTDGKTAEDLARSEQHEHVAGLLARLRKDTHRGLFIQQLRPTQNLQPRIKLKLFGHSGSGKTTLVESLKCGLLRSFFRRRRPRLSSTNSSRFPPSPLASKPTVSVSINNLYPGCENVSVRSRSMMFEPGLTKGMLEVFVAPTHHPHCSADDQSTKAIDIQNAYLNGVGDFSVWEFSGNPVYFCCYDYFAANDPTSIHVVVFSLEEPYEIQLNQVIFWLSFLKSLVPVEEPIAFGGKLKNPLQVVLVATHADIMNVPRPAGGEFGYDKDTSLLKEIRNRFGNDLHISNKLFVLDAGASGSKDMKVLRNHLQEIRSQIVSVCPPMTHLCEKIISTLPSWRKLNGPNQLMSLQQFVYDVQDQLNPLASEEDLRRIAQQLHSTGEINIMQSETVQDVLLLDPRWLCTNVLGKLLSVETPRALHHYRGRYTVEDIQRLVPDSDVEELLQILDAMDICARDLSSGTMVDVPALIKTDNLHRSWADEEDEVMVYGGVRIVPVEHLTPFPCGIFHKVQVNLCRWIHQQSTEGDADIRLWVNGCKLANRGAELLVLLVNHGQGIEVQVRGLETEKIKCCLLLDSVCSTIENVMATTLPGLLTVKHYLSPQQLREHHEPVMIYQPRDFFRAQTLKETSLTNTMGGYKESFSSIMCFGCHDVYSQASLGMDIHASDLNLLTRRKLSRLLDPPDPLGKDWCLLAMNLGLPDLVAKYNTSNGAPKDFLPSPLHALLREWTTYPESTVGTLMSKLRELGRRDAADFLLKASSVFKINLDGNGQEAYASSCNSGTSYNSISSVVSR
TLK1(h), sequence (Q9UKI8 whole entry): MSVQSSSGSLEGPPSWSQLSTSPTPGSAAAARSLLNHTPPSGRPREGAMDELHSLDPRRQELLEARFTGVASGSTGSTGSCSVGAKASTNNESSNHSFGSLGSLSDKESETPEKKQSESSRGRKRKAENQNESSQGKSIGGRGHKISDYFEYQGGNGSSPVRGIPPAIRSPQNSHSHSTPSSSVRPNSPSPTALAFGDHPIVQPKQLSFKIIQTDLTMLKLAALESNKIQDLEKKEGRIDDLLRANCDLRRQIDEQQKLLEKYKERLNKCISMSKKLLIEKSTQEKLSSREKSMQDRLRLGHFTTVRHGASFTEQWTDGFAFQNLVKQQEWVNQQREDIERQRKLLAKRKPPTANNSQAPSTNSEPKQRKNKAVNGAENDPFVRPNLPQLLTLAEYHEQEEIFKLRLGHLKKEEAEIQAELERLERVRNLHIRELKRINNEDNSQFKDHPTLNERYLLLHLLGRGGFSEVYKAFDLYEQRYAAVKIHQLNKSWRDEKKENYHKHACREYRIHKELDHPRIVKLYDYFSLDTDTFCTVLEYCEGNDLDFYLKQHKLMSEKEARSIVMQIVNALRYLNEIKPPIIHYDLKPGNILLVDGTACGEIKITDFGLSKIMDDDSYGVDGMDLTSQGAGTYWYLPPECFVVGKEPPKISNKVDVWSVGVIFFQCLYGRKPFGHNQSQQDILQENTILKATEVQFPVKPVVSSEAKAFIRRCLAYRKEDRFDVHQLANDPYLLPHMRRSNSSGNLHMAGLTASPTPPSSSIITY
PAK1(h), sequence (Q13153 whole entry): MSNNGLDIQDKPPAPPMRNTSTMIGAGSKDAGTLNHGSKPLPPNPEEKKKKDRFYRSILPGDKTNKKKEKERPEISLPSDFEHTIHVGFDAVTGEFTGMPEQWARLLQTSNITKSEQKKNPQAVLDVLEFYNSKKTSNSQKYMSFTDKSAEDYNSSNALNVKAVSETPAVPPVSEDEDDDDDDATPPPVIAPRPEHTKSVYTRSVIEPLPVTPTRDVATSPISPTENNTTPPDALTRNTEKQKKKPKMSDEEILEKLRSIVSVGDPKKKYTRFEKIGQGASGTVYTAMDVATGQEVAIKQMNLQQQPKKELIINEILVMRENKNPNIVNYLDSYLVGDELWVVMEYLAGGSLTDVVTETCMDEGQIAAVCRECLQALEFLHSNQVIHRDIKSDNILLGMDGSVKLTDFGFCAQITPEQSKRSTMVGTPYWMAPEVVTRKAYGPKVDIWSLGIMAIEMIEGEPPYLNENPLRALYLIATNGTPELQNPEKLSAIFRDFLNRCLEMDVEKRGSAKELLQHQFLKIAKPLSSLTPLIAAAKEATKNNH
NEK11(h), sequence (Q8NG66 whole entry): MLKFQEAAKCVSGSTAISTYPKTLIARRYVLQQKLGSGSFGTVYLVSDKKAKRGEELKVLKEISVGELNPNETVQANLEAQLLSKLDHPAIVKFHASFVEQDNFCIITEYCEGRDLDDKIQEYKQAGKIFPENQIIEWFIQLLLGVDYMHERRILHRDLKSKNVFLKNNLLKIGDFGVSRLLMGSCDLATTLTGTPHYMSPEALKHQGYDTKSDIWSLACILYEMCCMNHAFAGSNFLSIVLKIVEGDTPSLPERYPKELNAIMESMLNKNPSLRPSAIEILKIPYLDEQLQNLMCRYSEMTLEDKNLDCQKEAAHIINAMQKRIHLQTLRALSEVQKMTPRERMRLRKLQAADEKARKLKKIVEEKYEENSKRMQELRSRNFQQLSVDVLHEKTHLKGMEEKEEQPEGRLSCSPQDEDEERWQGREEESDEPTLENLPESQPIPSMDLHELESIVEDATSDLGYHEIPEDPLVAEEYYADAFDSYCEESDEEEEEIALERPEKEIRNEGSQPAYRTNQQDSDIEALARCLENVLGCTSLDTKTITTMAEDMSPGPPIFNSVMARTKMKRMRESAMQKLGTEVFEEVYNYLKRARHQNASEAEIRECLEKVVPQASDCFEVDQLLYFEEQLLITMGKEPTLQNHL
Histamine H2, sequence (P25021 whole entry): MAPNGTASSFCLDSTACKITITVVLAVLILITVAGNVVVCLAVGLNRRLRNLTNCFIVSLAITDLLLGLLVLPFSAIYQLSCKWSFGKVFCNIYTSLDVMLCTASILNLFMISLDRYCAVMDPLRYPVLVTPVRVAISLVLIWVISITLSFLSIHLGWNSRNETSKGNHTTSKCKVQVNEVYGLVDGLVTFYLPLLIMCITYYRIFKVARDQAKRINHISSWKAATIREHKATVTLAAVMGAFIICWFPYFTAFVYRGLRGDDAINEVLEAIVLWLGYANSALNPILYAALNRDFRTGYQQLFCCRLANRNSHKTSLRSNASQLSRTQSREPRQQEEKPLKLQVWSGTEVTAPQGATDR
Pim-1(h), sequence (P11309 whole entry): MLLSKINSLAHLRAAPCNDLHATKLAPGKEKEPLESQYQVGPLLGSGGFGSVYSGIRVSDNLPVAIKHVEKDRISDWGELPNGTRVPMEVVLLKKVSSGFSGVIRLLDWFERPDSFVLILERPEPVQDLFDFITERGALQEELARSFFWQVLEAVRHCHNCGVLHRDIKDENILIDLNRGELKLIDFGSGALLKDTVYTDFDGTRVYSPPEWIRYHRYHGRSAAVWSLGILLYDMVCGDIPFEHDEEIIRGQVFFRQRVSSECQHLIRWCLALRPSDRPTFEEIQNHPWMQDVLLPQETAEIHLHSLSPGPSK

Compound: COc1ccc(OC)c(NS(=O)(=O)c2ccc(NC(=O)CCSc3ccc(C)cc3)cc2)c1 [Compound A41]
- Activity(%) (Pim-1(h)): 95%
- % inh. (Melanocortin MC1): 14%
- Activity(%) (MINK(h)): 114%
- Activity(%) (DDR1(h)): 116%
- Activity(%) (TAK1(h)): 107%
- Activity(%) (PRKG2(h)): 123%
- Activity(%) (Fgr(h)): 114%
- % inh. (Histamine H2): -14%
- Activity(%) (ATM(h)): 114%
- Activity(%) (ErbB2(h)): 116%
- Activity(%) (TYK2(h)): 108%
- Activity(%) [1]: 100%
- Activity(%) (TLK1(h)): 102%
- Activity(%) (SIK(h)): 144%
- % inh. (Sodium Channel, Site 2): 57%
- Activity(%) (NEK11(h)): 99%
- Activity(%) (EGFR(L861Q)(h)): 107%
- Activity(%) (PAK1(h)): 115%
- % inh. (Potassium Channel hERG): 22%
- Activity(%) (SGK3(h)): 106%
- %Effect, single replicates (1st, 2nd, 3rd) (TA1535; - S9, 1.0E-04 M): 219.4% and 233.3% and 215.9%
- Cytotoxicity (% of control), Mean %Effect (TA1535; - S9, 1.0E-04 M): 222.9%
- %Effect, single replicates (1st, 2nd, 3rd) (TA1535; - S9, 1.0E-05 M): 96.4% and 98.7% and 108.0%
- Cytotoxicity (% of control), Mean %Effect (TA1535; - S9, 1.0E-05 M): 101.0%
- %Effect, single replicates (1st, 2nd, 3rd) (TA1535; - S9, 1.2E-06 M): 91.7% and 97.5% and 88.2%
- Cytotoxicity (% of control), Mean %Effect (TA1535; - S9, 1.2E-06 M): 92.5%
- %Effect, single replicates (1st, 2nd, 3rd) (TA1535; - S9, 2.5E-05 M): 116.1% and 99.8% and 98.7%
- Cytotoxicity (% of control), Mean %Effect (TA1535; - S9, 2.5E-05 M): 104.9%
- %Effect, single replicates (1st, 2nd, 3rd) (TA1535; - S9, 2.5E-06 M): 92.9% and 91.7% and 97.5%
- Cytotoxicity (% of control), Mean %Effect (TA1535; - S9, 2.5E-06 M): 94.0%
- %Effect, single replicates (1st, 2nd, 3rd) (TA1535; - S9, 5.0E-05 M): 168.3% and 163.7% and 175.3%
- Cytotoxicity (% of control), Mean %Effect (TA1535; - S9, 5.0E-05 M): 169.1%
- %Effect, single replicates (1st, 2nd, 3rd) (TA1535; - S9, 5.0E-06 M): 96.4% and 95.2% and 99.8%
- Cytotoxicity (% of control), Mean %Effect (TA1535; - S9, 5.0E-06 M): 97.1%
- %Effect, single replicates (1st, 2nd, 3rd) (TA1535; - S9, 6.0E-07 M): 89.4% and 96.4% and 94.0%
- Cytotoxicity (% of control), Mean %Effect (TA1535; - S9, 6.0E-07 M): 93.3%
- %Effect, single replicates (1st, 2nd, 3rd) (TA100; - S9, 1.0E-04 M): 222.5% and 205.5% and 199.0%
- Cytotoxicity (% of control), Mean %Effect (TA100; - S9, 1.0E-04 M): 209.0%
- %Effect, single replicates (1st, 2nd, 3rd) (TA100; - S9, 1.0E-05 M): 116.5% and 108.6% and 92.9%
- Cytotoxicity (% of control), Mean %Effect (TA100; - S9, 1.0E-05 M): 106.0%
- %Effect, single replicates (1st, 2nd, 3rd) (TA100; - S9, 1.2E-06 M): 103.4% and 99.5% and 92.9%
- Cytotoxicity (% of control), Mean %Effect (TA100; - S9, 1.2E-06 M): 98.6%
- %Effect, single replicates (1st, 2nd, 3rd) (TA100; - S9, 2.5E-05 M): 113.9% and 111.3% and 100.8%
- Cytotoxicity (% of control), Mean %Effect (TA100; - S9, 2.5E-05 M): 108.6%
- %Effect, single replicates (1st, 2nd, 3rd) (TA100; - S9, 2.5E-06 M): 106.0% and 103.4% and 92.9%
- Cytotoxicity (% of control), Mean %Effect (TA100; - S9, 2.5E-06 M): 100.8%
- %Effect, single replicates (1st, 2nd, 3rd) (TA100; - S9, 5.0E-05 M): 112.6% and 53.1% and 102.1%
- %Effect, single replicates (1st, 2nd, 3rd) (TA100; - S9, 5.0E-06 M): 116.5% (2×) and 91.6%
- Cytotoxicity (% of control), Mean %Effect (TA100; - S9, 5.0E-06 M): 108.2%
- %Effect, single replicates (1st, 2nd, 3rd) (TA100; - S9, 6.0E-07 M): 104.7% (2×) and 98.2%
- Cytotoxicity (% of control), Mean %Effect (TA100; - S9, 6.0E-07 M): 102.5%
- Activity(%) (DAPK1(h)): 117%
- Activity(%) (PTK5(h)): 113%
- Activity(%) (PKBα(h)): 108%
- Activity(%) (CDK3/cyclinE(h)): 77%
- % inh. [2]: -2%
- Activity(%) (Lck(h)): 74%
- Activity(%) (RIPK1(h)): 98%
- Activity(%) (IGF-1R(h)): 100%
- % inh. [3]: 56%
- Activity(%) (PAK6(h)): 99%
- Activity(%) (ICK(h)): 77%
- Activity(%) (ALK4(h)): 101%
- Activity(%) (CSK(h)): 119%
